From patent US11279733B2, “Peptide antibiotics” (priority 2017, dated 2022)
≈ marks a conversion by molar mass, not a printed value. Positions of bridges follow the written chain, without caps; N, C: chain ends. Non-standard residues stand in square brackets, D forms with d. Residues, ends and D or L forms follow the SMILES beside them. *: point of attachment. Decanoyl(3R-OH) = CCCCCCC[C@@H](O)CC(=O)*; Igl = N[C@H](C(=O)O)C1Cc2ccccc2C1; hPhe = N[C@@H](CCc1ccccc1)C(=O)O; dDab = NCC[C@@H](N)C(=O)O; dDap = NC[C@@H](N)C(=O)O; Dab = NCC[C@H](N)C(=O)O

Assays:
A. baumannii ATCC 19606 = details: ATCC 19606
Outline: (§1)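 Mid-log cultures grown in Mueller Hinton broth at 37° C were tested by 2-fold broth microdilution at 5×10^5 CFU/mL final. Compounds were dissolved in water and tested over a final range of 32 to 0.015 μg/mL.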

E. coli ATCC 25922 = details: ATCC 25922
Outline: as §1

[1] = system: K. pneumoniae ATCC BAA-2146, NDM-1 pos; details: ATCC BAA-2146
Outline: as §1

[2] = system: P. aeruginosa GN_105, PmxR; details: GN 105, PmxR
Outline: as §1

[3] = system: S. aureus ATCC 25923, MSSA; details: ATCC 25923
Outline: as §1

A. baumannii GN_093 PmxR = details: GN 093 PmxR
Outline: as §1

[4] = system: K. pneumoniae GN_102 PmxR; details: GN 102 PmxR
Outline: as §1

[5] = system: K. pneumoniae GN_106, PmxR; details: GN 106, PmxR
Outline: as §1

[6] = system: K. pneumoniae ATCC 700603, MDR; details: ATCC 700603
Outline: as §1

K. pneumoniae ATCC 13883 = details: ATCC 13883
Outline: as §1

[7] = system: P. aeruginosa GN_043, PmxR; details: polymyxin-resistant
Outline: as §1

P. aeruginosa ATCC 27853 = details: ATCC 27853
Outline: as §1

Neisseria gonorrhoeae = assay: MIC determination, Neisseria gonorrhoeae; format: cell-based; details: for MIC N. gonorrhoeae FA19 ATCC BAA-1838: strain FA19 ATCC BAA-1838
Method: Bacteria were either obtained from American Type Culture Collection (ATCC; Manassas, Va., USA) or independent academic clinical isolate collections, as listed in Table 18 below. Bacteria were cultured in Nutrient broth (NB; Bacto Laboratories, catalogue No. 234000) or Mueller Hinton broth (MHB; Bacto Laboratories, catalogue No. 211443) at 37° C. overnight with shaking (˜180 RPM). A sample of each culture was then diluted 50-fold in fresh MHB and incubated at 37° C. for 2-3 h with shaking (˜180 RPM). Compound stock solutions were prepared as 0.64 mg/mL or 2.56 mg/mL in water. The compounds, at twice the final desired concentration, were serially diluted 2-fold across the wells of 96-well plates (Polystyrene, Corning, catalogue No. 3370). Mid-log phase bacterial cultures (after 2-3 h incubation) were diluted to a final concentration of 1×10^6 colony forming units (CFU)/mL, and 50 μL was added to each well giving a final cell density of 5×10^5 and a compound concentration range of 32 μg/mL to 0.015 μg/mL (128-0.06 μg/mL against P. aeruginosa PA9704).

in vitro = details: human
Outline: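 Cells (4000/well, pre-attached 24 h) then received 5 μM resazurin for 2 h, with fluorescence measured at ex 560/em 590.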

Row | SMILES | MIC A. baumannii ATCC 19606 (A. baumannii ATCC 19606) | MIC E. coli ATCC 25922 (E. coli ATCC 25922) | MIC K. pneumoniae ATCC BAA-2146, NDM-1 pos [1] | MIC P. aeruginosa GN_105, PmxR [2] | MIC S. aureus ATCC 25923, MSSA [3] | MIC A. baumannii GN_093 PmxR (A. baumannii GN_093 PmxR) | MIC K. pneumoniae GN_102 PmxR [4] | MIC K. pneumoniae GN_106, PmxR [5] | MIC K. pneumoniae ATCC 700603, MDR [6] | MIC K. pneumoniae ATCC 13883 (K. pneumoniae ATCC 13883) | MIC P. aeruginosa GN_043, PmxR [7] | MIC P. aeruginosa ATCC 27853 (P. aeruginosa ATCC 27853) | MIC N. gonorrhoeae FA19 ATCC BAA-1838 (Neisseria gonorrhoeae) | CC50 at 24 h (in vitro) | MIC N. gonorrhoeae F89 (Neisseria gonorrhoeae; strain F89) | MIC N. gonorrhoeae FA1090 A25 ATCC 700825 (Neisseria gonorrhoeae; strain FA1090 A25 ATCC 700825) | MIC N. gonorrhoeae H041 (Neisseria gonorrhoeae; strain H041)
1 | CCCCCCC[C@@H](O)CC(=O)N[C@H](CCN)C(=O)N[C@H]1CCNC(=O)[C@H](C2Cc3ccccc3C2)NC(=O)[C@H](CCN)NC(=O)[C@H](CCN)NC(=O)[C@H](CC(C)C)NC(=O)[C@@H](Cc2ccccc2)NC(=O)[C@H](CCN)NC1=O [compound 8912, 3(R)OH-nC9CO-D-Dab-cyc[L-Dab-L-Dab-D-Phe-L-Leu-L-Dab-L-Dab-L-indanylgly]] ({Decanoyl(3R-OH)}-[dDab][Dab][Dab][dF]L[Dab][Dab][Igl]; lactam 2-C) | 4 µg/mL (≈ 3.62 µM) | 2 µg/mL (≈ 1.81 µM) | 4 µg/mL (≈ 3.62 µM) | 2 µg/mL (≈ 1.81 µM) | 2 µg/mL (≈ 1.81 µM) | 4 µg/mL (≈ 3.62 µM) | 2 µg/mL (≈ 1.81 µM) | 2 µg/mL (≈ 1.81 µM) | 4 µg/mL (≈ 3.62 µM) | 2 µg/mL (≈ 1.81 µM) | 2 µg/mL (≈ 1.81 µM) | 2 µg/mL (≈ 1.81 µM) | 0.78 µg/mL (≈ 0.706 µM) | 28 µM |  |  | 
2 | CCCCCCC[C@@H](O)CC(=O)N[C@H](CCN)C(=O)N[C@H]1CCNC(=O)[C@H](CCc2ccccc2)NC(=O)[C@H](CCN)NC(=O)[C@H](CCN)NC(=O)[C@H](CC(C)C)NC(=O)[C@@H](Cc2ccccc2)NC(=O)[C@H](CCN)NC1=O [compound 8913, 3(R)OH-nC9CO-D-Dab-cyc[L-Dab-L-Dab-D-Phe-L-Leu-L-Dab-L-Dab-L-hPhe]] ({Decanoyl(3R-OH)}-[dDab][Dab][Dab][dF]L[Dab][Dab][hPhe]; lactam 2-C) | 8 µg/mL (≈ 7.32 µM) | 2 µg/mL (≈ 1.83 µM) | 4 µg/mL (≈ 3.66 µM) | 2 µg/mL (≈ 1.83 µM) | 4 µg/mL (≈ 3.66 µM) | 4 µg/mL (≈ 3.66 µM) | 2 µg/mL (≈ 1.83 µM) | 2 µg/mL (≈ 1.83 µM) | 4 µg/mL (≈ 3.66 µM) | 4 µg/mL (≈ 3.66 µM) | 4 µg/mL (≈ 3.66 µM) | 2 µg/mL (≈ 1.83 µM) | 1.56 µg/mL (≈ 1.43 µM) | 32 µM |  |  | 
3 | CCCCCCC[C@@H](O)CC(=O)N[C@H](CN)C(=O)N[C@H]1CCNC(=O)[C@H](Cc2c[nH]c3ccccc23)NC(=O)[C@H](CCN)NC(=O)[C@H](CCN)NC(=O)[C@H](CC(C)C)NC(=O)[C@@H](Cc2ccccc2)NC(=O)[C@H](CCN)NC1=O [compound 8886, 3(R)OH-nC9CO-D-Dap-cyc[L-Dab-L-Dab-D-Phe-L-Leu-L-Dab-L-Dab-L-Trp]] ({Decanoyl(3R-OH)}-[dDap][Dab][Dab][dF]L[Dab][Dab]W; lactam 2-C) | 8 µg/mL (≈ 7.25 µM) | 2 µg/mL (≈ 1.81 µM) | 4 µg/mL (≈ 3.63 µM) | 1 µg/mL (≈ 0.906 µM) | 4 µg/mL (≈ 3.63 µM) | 8 µg/mL (≈ 7.25 µM) | 4 µg/mL (≈ 3.63 µM) | 4 µg/mL (≈ 3.63 µM) | 4 µg/mL (≈ 3.63 µM) | 4 µg/mL (≈ 3.63 µM) | 2 µg/mL (≈ 1.81 µM) | 2 µg/mL (≈ 1.81 µM) | 0.39 µg/mL (≈ 0.353 µM) | 95 µM | 1.04 µg/mL (≈ 0.943 µM) | 0.91 µg/mL (≈ 0.825 µM) | 1.04 µg/mL (≈ 0.943 µM)
